Test results published in patent publication EP0672421B1, “ENDOTHELIN ACTIVITY INHIBITOR” (Kurashiki Boseki Kabushiki Kaisha, priority 1993, dated 2002).
Positions of bridges follow the written chain, without caps; N, C: chain ends. No end group written: not given here.

Tested on: 3T3 cells
Experiment: Increase of intracellular calcium ion concentration by addition of endothelin
Type: cell-based
Settings: mouse 3T3 cells; endothelin-1 0.01 to 100 ng/ml; relative fluorescence intensity; Figure 4
Method: It is known that addition of endothelin into culture cell causes the elevation of intracellular Ca^2+ concentration.
Commercially available 3T3 cells (ATCC No.CCL92) cultured in a flask according to the standard method were used in the experiments. The cells adhered to a inner wall of the flask were harvested by trypsinization treatment, washed three times with Ca^2+-free phosphate buffered saline (PBS) and suspended into 200 µl of the Ca^2+-free PBS. Into the cell suspension, a fluorescent indicator of Ca^2+, FLUO-3AM (Wako chemicals: 1 mM in DMSO solution), was added at a final concentration of 1 µM. The cells were incubated at 37°C for 10 minutes to allow them to uptake the indicator. […]
The increase in relative fluorescence intensity caused by Ca^2+ influx was measured with FACScan of Becton, Dickinson & Co.. In the measurement, a base line was determined over 20 seconds, then a test substance (for example endothelin) was added into the sample and followed the time course of the relative fluorescence intensity for about 80 seconds.
Into each aliquots of the above cell suspension, endothelin-1 was added at a final concentration of 0.01 to 100 ng/ml to observe the changes in the relative fluorescence intensity.

Substance: endothelin-1 (CSCSSLMDKECVYFCHLDIIW; disulfide 1-15, 3-11; ends not checked; UniProt P05305 53-73, looked up)
- increase of intracellular calcium ion concentration: increase of the intracellular calcium ion concentration occurs in proportion to the concentration of endothelin
